The values below come from patent US8283373B2, “Inhibitors of cytosolic phospholipase A2” (Pfizer Inc., priority 2005, dated 2012).

For one assay, the system named is CFA-induced hyperalgesia. As to the kind of experiment: CFA-induced hyperalgesia model. Type of assay: in vivo, rat. The settings on record: 6 hours after CFA. From the text: The sensitivity of peripheral sensory neurons can be enhanced such that they respond to both noxious and non-noxious stimuli resulting in chronic pain (See Julius, D. et al., Nature. 2001; 413:203; Woolf, C. J., et al., Science. […]; 288:1765). Prostaglandins and leukotrienes at the site of inflammation and tissue damage are partially responsible for this potentiation of the pain response. Prostaglandins promote the phosphorylation of ion channels, increasing the excitability and lowering the pain threshold of sensory neurons. Analogously, leukotriene B4 and related arachidonate metabolites of 12-LO bind to and activate the capsaicin receptor (or VR1) ion channel on neurons that respond to heat and low pH (See Piomelli D., TRENDS in Pharmacological Sciences, January 2001; 22(1):17-29). The effect of the compound of Example 10 was measured in the CFA-induced hyperalgesia model, and lipid mediator production was measured at peripheral and central sites.
The animals were dosed with vehicle, the compound of Example 10, naproxen or celecoxib, and then CFA was immediately injected into the hind footpad. To assess hyperalgesia, pressure was applied to the left hind paw at a slow and constant rate using a digital force gauge. Measurements were taken at 0 and 6 hours. The application of the force was stopped when the animal vocalized, or struggled. Readings were taken prior to dosing and CFA injection, and repeated six hours after the CFA injection. Two independent experiments were run and the data were analyzed separately.
The paws were collected at the end of each experiment (6 hours) and the levels of PGE2, LTB4 and TXB2 were measured in the exudates.

The test system of assay [1] is OVA-induced pulmonary inflammation. As to the kind of experiment: Rat antigen induced pulmonary inflammation model. It counts as in vivo. The method, then: The efficacy of the compound of Example 10 was evaluated in a Brown Norway rat model in which ovalbumin (OVA)-sensitized animals were challenged via the airways with an aerosol of ovalbumin (OVA) on days 1 and 2. OVA sensitized rats were challenged via aerosol on day 1 and day 2. The compound of Example 10 was administered at 30 mg/kg PO BID 1 hour prior to challenge and 10 hours after challenge over the 2 day challenge period. Dexamethasone was administered at 3 mg/kg IP 1 hour prior to challenge on day 1 and day 2. Animals were sacrificed on day 3 and bronchoalveolar cavities ravaged for analysis of cellular influx.

The test system of assay [2] is primary dopaminergic neurons. As to the kind of experiment: MPP+ exposure in dopaminergic neurons. Type of assay: cell-based, rat. The settings on record: 10 μM MPP+ 60 minutes, control 100, MPP+ alone 56.6. Here is the method: Primary dopaminergic neurons were isolated from E15 rat embryos as described in Pong K., et al., (1997) J. Neurochem. 69 986-994. Briefly, the ventral mesencephalon was isolated and tissue was pooled in ice-cold phosphate buffer saline (PBS) without Ca^2+ and Mg^2+. The tissue was transferred to an enzymatic dissociation media containing 20 IU/ml papain in Earle's balanced salt solution (Worthington Biochemical, Freehold, N.J.) and incubated for 30 minutes at 37° C. After enzymatic dissociation, the papain solution was aspirated and the tissue mechanically triturated with a fire-polished Pasteur pipette in complete media [Neurobasal Medium with B-27 supplement (Gibco, Grand Island, N.Y.), penicillin/streptomycin, aphidicolin, glutamate] containing 2,000 IU/ml DNase and 10 mg/ml ovomucoid protease inhibitor. Single-cell suspensions in complete media were plated on pre-coated poly-L-ornithine/laminin 24-well plates (Becton-Dickinson, Bedford, Mass.) at a density of 5.0×10^5 cells/well. Cells were maintained for one week prior to experimentation.
Cultures were exposed to 10 μM MPP^+ for 60 minutes. After the exposure, fresh media was exchanged and fresh compound was added. Dopaminergic neuron viability was determined 24 hours later by measuring ^3H-dopamine uptake as described in Pong et al., 1997, supra.

Assay [3] deals with experimental autoimmune encephalomyelitis (EAE). The assay is described as follows: Experimental autoimmune encephalomyelitis (EAE) model of multiple sclerosis. It counts as in vivo, mouse. The method, then: Six groups of B6 mice were immunized with MOG/CFA and injected with pertussis toxin to induce experimental autoimmune encephalomyelitis (EAE), an animal model of Multiple sclerosis. Three groups of mice were treated with vehicle, 4-{3-[1-benzhydryl-5-chloro-2-(2-{[(2,6-dimethylbenzyl)sulfonyl]amino}ethyl)-1H-indol-3-yl]propyl}benzoic acid (Compound A), or 4-{2-[1-benzhydryl-5-chloro-2-(2-{[(3,4-dichlorobenzyl)sulfonyl]amino}-ethyl)-1H-indol-3-yl]ethoxy}benzoic acid (Compound B) from the day of Immunization (orally, 100 mg/kg, twice/day). Another three groups of mice were treated with vehicle, Compound A or Compound B starting on the day of EAE onset (day 15) (orally, 100 mg/kg, twice/day). […] The results are shown in the Table below, wherein mean clinical score is a mean of clinical evaluation of each animal for that particular day.
Animals are Scored as Follows:
• 0—no clinical signs of EAE (no paralysis) • 1—paralysis of tail • 2—paralysis of tail and partial hind leg paralysis • 3—paralysis of tail and complete hind leg paralysis • 4—paralysis of tail, complete hind leg paralysis and a partial front leg paralysis • 5—moribund animal (all four limbs paralyzed, lack of responsiveness, these mice were immediately euthanized).
In addition, the compounds of Examples 14 and 25 were also found to be efficacious in the mouse experimental autoimmune encephalomyelitis (EAE) model of multiple sclerosis. As shown by the data in the Table below, these compounds led to a delayed onset of disease and reduced severity of disease when administered orally in doses as low as 2.5 mg/kg.

Entries after “also recorded” stand apart in the source; their conditions may differ.

For `O=C(O)c1ccc(CCCc2c(CCNS(=O)(=O)Cc3ccccc3C(F)(F)F)n(C(c3ccccc3)c3ccccc3)c3ccc(Cl)cc23)cc1` [Example 10, 4-(3-{5-chloro-1-(diphenylmethyl)-2-[2-({[2-(trifluoromethyl)benzyl]sulfonyl}amino)ethyl]-1H-indol-3-yl}propyl)benzoic acid], the “pain (paw pressure) compared to vehicle control” value with CFA-induced hyperalgesia (25 mg/kg) is given as “statistically significant decrease; also recorded: effective”. Further, in the assay on CFA-induced hyperalgesia, the “LTB4 levels in paw exudates” value is “significantly inhibited” and the “TXB2 levels in paw exudates” value was “greater than the inhibition with celecoxib”. In the assay on CFA-induced hyperalgesia (Example 10 at 25 mg/kg), the “PGE2 levels in paw exudates” value was “significantly inhibited”. In assay [1] (30 mg/kg PO BID), the “influx of lymphocytes or neutrophils” value was “no significant effect” and the “total numbers of inflammatory cells within the BALF” value is on record as “statistically significantly attenuated”. The “Bronchoalveolar lavage fluid (BALF) eosinophil influx” value in assay [1] (30 mg/kg PO BID over 2 day challenge, 8 out of 8 independent studies) was “statistically significantly inhibited”.

As to `Cc1cccc(C)c1CS(=O)(=O)NCCc1c(CCCc2ccc(C(=O)O)cc2)c2cc(Cl)ccc2n1C(c1ccccc1)c1ccccc1` [Compound A, 4-{3-[1-benzhydryl-5-chloro-2-(2-{[(2,6-dimethylbenzyl)sulfonyl]amino}ethyl)-1H-indol-3-yl]propyl}benzoic acid], the “dopaminergic neuron viability (3H-dopamine uptake), Avg.” value was determined as 76.9 in assay [2] (0.3 μM), 83.4 in assay [2] (1 μM), 78.8 in assay [2] (3 μM) and 81.1 in assay [2] (10 μM). In addition, the mean clinical score in assay [3] (100 mg/kg orally twice/day from EAE onset (day 15), day 11 after immunization) is 0; in assay [3] (100 mg/kg orally twice/day from EAE onset (day 15), day 12 after immunization) it was 0; in assay [3] (100 mg/kg orally twice/day from EAE onset (day 15), day 13 after immunization), 0; in assay [3] (100 mg/kg orally twice/day from EAE onset (day 15), day 14 after immunization), 0; in assay [3] (100 mg/kg orally twice/day from EAE onset (day 15), day 15 after immunization), 0.33; in assay [3] (100 mg/kg orally twice/day from EAE onset (day 15), day 16 after immunization), 0.60. The mean clinical score in assay [3] (100 mg/kg orally twice/day from EAE onset (day 15), day 17 after immunization) was determined as 0.80; in assay [3] (100 mg/kg orally twice/day from EAE onset (day 15), day 18 after immunization) it was 1.03; in assay [3] (100 mg/kg orally twice/day from EAE onset (day 15), day 19 after immunization), 1.13; in assay [3] (100 mg/kg orally twice/day from EAE onset (day 15), day 20 after immunization), 1.50; in assay [3] (100 mg/kg orally twice/day from EAE onset (day 15), day 21 after immunization), 1.57; in assay [3] (100 mg/kg orally twice/day from EAE onset (day 15), day 22 after immunization) it was 1.60. In addition, the mean clinical score was 1.37 in assay [3] (100 mg/kg orally twice/day from EAE onset (day 15), day 23 after immunization); 1.43 in assay [3] (100 mg/kg orally twice/day from EAE onset (day 15), day 24 after immunization); 1.23 in assay [3] (100 mg/kg orally twice/day from EAE onset (day 15), day 25 after immunization); 0.87 in assay [3] (100 mg/kg orally twice/day from EAE onset (day 15), day 26 after immunization); 0.87 in assay [3] (100 mg/kg orally twice/day from EAE onset (day 15), day 27 after immunization); 0 in assay [3] (100 mg/kg orally twice/day from day of immunization (Day 1), day 11 after immunization). Besides, the mean clinical score in assay [3] (100 mg/kg orally twice/day from day of immunization (Day 1), day 12 after immunization) is listed as 0; in assay [3] (100 mg/kg orally twice/day from day of immunization (Day 1), day 13 after immunization), 0; in assay [3] (100 mg/kg orally twice/day from day of immunization (Day 1), day 14 after immunization), 0; in assay [3] (100 mg/kg orally twice/day from day of immunization (Day 1), day 15 after immunization), 0; in assay [3] (100 mg/kg orally twice/day from day of immunization (Day 1), day 16 after immunization), 0; in assay [3] (100 mg/kg orally twice/day from day of immunization (Day 1), day 17 after immunization), 0. The mean clinical score worked out at 0 in assay [3] (100 mg/kg orally twice/day from day of immunization (Day 1), day 18 after immunization); 0 in assay [3] (100 mg/kg orally twice/day from day of immunization (Day 1), day 19 after immunization); 0 in assay [3] (100 mg/kg orally twice/day from day of immunization (Day 1), day 20 after immunization); 0.06 in assay [3] (100 mg/kg orally twice/day from day of immunization (Day 1), day 21 after immunization); 0.09 in assay [3] (100 mg/kg orally twice/day from day of immunization (Day 1), day 22 after immunization); 0.16 in assay [3] (100 mg/kg orally twice/day from day of immunization (Day 1), day 23 after immunization). Further, the mean clinical score in assay [3] (100 mg/kg orally twice/day from day of immunization (Day 1), day 24 after immunization) came to 0.19; in assay [3] (100 mg/kg orally twice/day from day of immunization (Day 1), day 25 after immunization) it was 0.25; in assay [3] (100 mg/kg orally twice/day from day of immunization (Day 1), day 26 after immunization) it was 0.28; in assay [3] (100 mg/kg orally twice/day from day of immunization (Day 1), day 27 after immunization) it was 0.38. Further, the “prevention of EAE / reduction of clinical severity” value in assay [3] (administered from the time of immunization, or in mice with or close to EAE) is on record as “can prevent EAE”.
